Reference: paper PMC6358909, “Synthesis and Biochemical Evaluation of Lid-Open D-Amino Acid Oxidase Inhibitors” (Molecules, 2019)

Legend:
Human DAAO = biological target: T1, Human DAAO (Homo sapiens, UniProt P14920); test: KYNA enzyme inhibition assay (D-kynurenine substrate, fluorescence); format: biochemical; conditions: 5 µM FAD, pH 8, 37 °C 1 h, standard deviations in parenthesis
T1 construct: purchased TargetEx Ltd. (Dunakeszi, Hungary)
Procedure: The prepared compounds were tested as DAAO inhibitors with the KYNA enzyme inhibitory assay. Although D-serine is a natural substrate of DAAO, its metabolite is not suitable for fluorometric evaluation. However in the applied assay, D-kynurenine can be metabolized by DAAO [19] and the metabolite (KYNA) has a favorable fluorescence property. Thus it can be used for fluorescence measurements.
D-2-Amino-4-(2-aminophenyl)-4-oxobutanoic acid (D-KYN) was used to measure D-amino acid oxidase activity based on the protocol described in ref. [18, 20]. Human DAAO (purchased from TargetEx Ltd. (Dunakeszi, Hungary)) was used for the measurements. The buffer contained 20 mM TRIS-HCl and 100 mM NaCl (pH = 8). Flavin adenine dinucleotide (FAD—obtained from Sigma (St. Louis, MO, USA)) in 5 µM concentration was also included in the assay. Compounds were dissolved originally in DMSO and the measured samples were diluted with the buffer solution (the final DMSO concentration was always below 5%). The mixed solution was incubated at 37 °C for 1 h. After the enzymatic reaction, ZnCl2 dissolved in H2O was added and vortex-mixed. Single point measurements were performed at 20 µm inhibitor concentration. For the IC50 measurements, the inhibitors were used at 5 nM, 50 nM, 500 nM, 2.5 µM, 5 µM, 10 µM, 50 µM. Measurements were carried out on a Citation3 cell imaging multi-mode microplate reader (BioTek Instruments Inc., Winooski, VT, USA) with […]. The applied wavelengths were 340 nm and 396 nm.
Result from the coupled HRP/Amplex Red assay for compound 13
Compound 13 was evaluated in both the KYNA and the coupled HRP/Amplex red assays. Assay […]
HRP/Amplex assay KYNA assay […]
hDAAO original concentration 1 µg / 1500 µL buffer 1 µg / 400 µL buffer hDAAO assay concentration 0.25 µg / 1500 µL buffer 0.25 µg / 400 µL buffer FAD conc. in assay 5 µM 5 µM
Ligand conc. in assay 20 µM 20 µM
Incubation period No Yes (1 hour, 37 °C)
Type of the measurement Kinetic (45 min) single point detection
Detection fluorescent fluorescent
Assay interference Yes No
Ligand autofluorescence No No
Dose response curve obtained for compound 13 using the HRP/Amplex red assay
(1 picture or pasted object on this page, not shown here)

hDAO = hDAO (Homo sapiens, UniProt P14920); test: Differential scanning fluorimetry (DSF) measurement; format: binding; conditions: for Tm: hDAO without inhibitor 59.4 °C; for ~ΔTm: shift versus hDAO without inhibitor
hDAO, sequence (P14920 whole entry): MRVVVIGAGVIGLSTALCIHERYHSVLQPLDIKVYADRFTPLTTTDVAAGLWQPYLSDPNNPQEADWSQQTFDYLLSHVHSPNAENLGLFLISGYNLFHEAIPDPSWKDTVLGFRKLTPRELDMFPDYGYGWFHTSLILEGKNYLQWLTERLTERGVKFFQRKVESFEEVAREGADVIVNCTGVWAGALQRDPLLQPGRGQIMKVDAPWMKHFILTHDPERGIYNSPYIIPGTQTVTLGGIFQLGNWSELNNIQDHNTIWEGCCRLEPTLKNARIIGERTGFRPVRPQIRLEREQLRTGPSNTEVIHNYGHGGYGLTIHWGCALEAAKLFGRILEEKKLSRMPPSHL
Procedure: We started with compounds 8 and 9 (Figure 3). […] The activity of this 3-Cl substituted derivative (11) was lower than 100 nM therefore we synthesized the 3-Me derivative (12). […] DAAO binding and activity of representative compounds have been confirmed in orthogonal differential scanning fluorometry (DSF) and the coupled Horseradish peroxidase (HRP)/Amplex Red assays, respectively (see Supplementary materials). The designed compounds were docked into the protein structure obtained from the complex of 8 by the removal of the ligand. […]
Scheme S4. Synthesis of the headgroup […]
Results from differential scanning fluorimetry (DSF) measurements
Compound Structure DSF measurement […]

DAAO = system: DAAO; design: method as in PMID 25001371; conditions: cited from earlier work

T1 sequence (P14920 whole entry): as above

Row | Compound | IC50 (Human DAAO) [nM] | Tm (hDAO) [°C] | ~ΔTm (hDAO) [°C] | competitive D-serine inhibitory properties (DAAO)
1 | O=c1cc(-c2ccc(Cl)cc2)c2cc(CCc3cc(O)c(=O)[nH]n3)c(O)cc2o1 [Compound 9] | 119 |  |  | 
2 | Cc1ccc(-c2cc(=O)oc3cc(O)c(CCc4cc(O)c(=O)[nH]n4)cc23)cc1 [Compound 10] | 474 |  |  | 
3 | COc1cccc(-c2cc(=O)oc3cc(O)c(CCc4cc(O)c(=O)[nH]n4)cc23)c1 [Compound 13] | 73 | 72.0 | ~12.6 | 
4 | O=c1cc(-c2ccccc2)c2cc(CCc3cc(O)c(=O)[nH]n3)c(O)cc2o1 [Compound 8, reference compound] | 112 | 74.7 | ~15.3 | 
5 | O=C(O)CCc1cc2c(-c3ccccc3)cc(=O)oc2cc1O [Compound 7] |  |  |  | low nanomolar range

The next lines start with results.

Row | IC50 (Human DAAO) [nM] | Tm (hDAO) [°C] | ~ΔTm (hDAO) [°C] | Compound | competitive D-serine inhibitory properties (DAAO)
6 | 69 |  |  | O=c1cc(-c2cccc(Cl)c2)c2cc(CCc3cc(O)c(=O)[nH]n3)c(O)cc2o1 [Compound 11] | 
7 | 52 |  |  | Cc1cccc(-c2cc(=O)oc3cc(O)c(CCc4cc(O)c(=O)[nH]n4)cc23)c1 [Compound 12] | 
